Experimental findings from ChEMBL document CHEMBL4339212, “Novel 7-formyl-naphthyridyl-ureas derivatives as potential selective FGFR4 inhibitors: Design, synthesis, and biological activity studies” (Bioorg Med Chem, 2019) are described below.

pIC50: −log10 of the molar value. Some results are limits rather than exact numbers.

The target in one series is Angiopoietin-1 receptor (Homo sapiens, UniProt Q02763). Put plainly: Inhibition of TIE2 (unknown origin).
Series [1] deals with Muscle, skeletal receptor tyrosine-protein kinase (Homo sapiens, UniProt O15146). Put plainly: Inhibition of MUSK (unknown origin).
Muscle, skeletal receptor tyrosine-protein kinase, sequence (O15146 whole entry): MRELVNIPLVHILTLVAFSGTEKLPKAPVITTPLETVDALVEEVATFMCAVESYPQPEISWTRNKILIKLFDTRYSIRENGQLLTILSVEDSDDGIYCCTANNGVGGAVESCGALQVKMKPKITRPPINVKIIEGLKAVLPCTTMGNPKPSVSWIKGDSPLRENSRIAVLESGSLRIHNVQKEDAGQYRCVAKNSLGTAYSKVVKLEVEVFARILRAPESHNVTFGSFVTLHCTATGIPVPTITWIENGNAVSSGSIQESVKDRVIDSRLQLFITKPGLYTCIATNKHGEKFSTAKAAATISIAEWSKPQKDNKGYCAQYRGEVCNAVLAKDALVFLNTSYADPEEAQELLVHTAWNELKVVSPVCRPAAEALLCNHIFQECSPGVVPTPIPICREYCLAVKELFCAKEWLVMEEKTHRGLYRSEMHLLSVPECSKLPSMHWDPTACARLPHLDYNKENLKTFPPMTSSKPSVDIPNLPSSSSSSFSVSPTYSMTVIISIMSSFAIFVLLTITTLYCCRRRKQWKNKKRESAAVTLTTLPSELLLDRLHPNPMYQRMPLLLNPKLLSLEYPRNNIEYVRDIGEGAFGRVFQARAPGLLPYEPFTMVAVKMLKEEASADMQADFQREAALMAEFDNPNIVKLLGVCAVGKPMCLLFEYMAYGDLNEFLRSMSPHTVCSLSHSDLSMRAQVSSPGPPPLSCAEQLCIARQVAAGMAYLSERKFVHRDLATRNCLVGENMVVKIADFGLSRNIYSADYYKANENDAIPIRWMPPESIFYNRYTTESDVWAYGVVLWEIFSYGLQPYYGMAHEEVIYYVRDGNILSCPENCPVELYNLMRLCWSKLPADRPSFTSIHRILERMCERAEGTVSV
A further series relates to Hep 3B2. The series can be described thus: Antitumor activity against human Hep3B cells xenografted in nude BALB/c mouse assessed as inhibition of tumor growth at 30 mg/kg bid for 14 days and measured twice per week relative to untreated control. Particulars: 336 h, read-out: TGI. In kind it is functional. (In xenograft studies the graft and the host belong to different species.)

A further series has as its target Ephrin type-A receptor 1 (Homo sapiens, UniProt P21709). The series can be described thus: Inhibition of EphA1 (unknown origin).
The target in a further series is Insulin receptor (Homo sapiens, UniProt P06213). Put plainly: Inhibition of INSR (unknown origin).
The target of series [2] is Mast/stem cell growth factor receptor Kit (Homo sapiens, UniProt P10721). The series can be described thus: Inhibition of C-KIT (unknown origin).
Mast/stem cell growth factor receptor Kit, sequence (P10721 whole entry): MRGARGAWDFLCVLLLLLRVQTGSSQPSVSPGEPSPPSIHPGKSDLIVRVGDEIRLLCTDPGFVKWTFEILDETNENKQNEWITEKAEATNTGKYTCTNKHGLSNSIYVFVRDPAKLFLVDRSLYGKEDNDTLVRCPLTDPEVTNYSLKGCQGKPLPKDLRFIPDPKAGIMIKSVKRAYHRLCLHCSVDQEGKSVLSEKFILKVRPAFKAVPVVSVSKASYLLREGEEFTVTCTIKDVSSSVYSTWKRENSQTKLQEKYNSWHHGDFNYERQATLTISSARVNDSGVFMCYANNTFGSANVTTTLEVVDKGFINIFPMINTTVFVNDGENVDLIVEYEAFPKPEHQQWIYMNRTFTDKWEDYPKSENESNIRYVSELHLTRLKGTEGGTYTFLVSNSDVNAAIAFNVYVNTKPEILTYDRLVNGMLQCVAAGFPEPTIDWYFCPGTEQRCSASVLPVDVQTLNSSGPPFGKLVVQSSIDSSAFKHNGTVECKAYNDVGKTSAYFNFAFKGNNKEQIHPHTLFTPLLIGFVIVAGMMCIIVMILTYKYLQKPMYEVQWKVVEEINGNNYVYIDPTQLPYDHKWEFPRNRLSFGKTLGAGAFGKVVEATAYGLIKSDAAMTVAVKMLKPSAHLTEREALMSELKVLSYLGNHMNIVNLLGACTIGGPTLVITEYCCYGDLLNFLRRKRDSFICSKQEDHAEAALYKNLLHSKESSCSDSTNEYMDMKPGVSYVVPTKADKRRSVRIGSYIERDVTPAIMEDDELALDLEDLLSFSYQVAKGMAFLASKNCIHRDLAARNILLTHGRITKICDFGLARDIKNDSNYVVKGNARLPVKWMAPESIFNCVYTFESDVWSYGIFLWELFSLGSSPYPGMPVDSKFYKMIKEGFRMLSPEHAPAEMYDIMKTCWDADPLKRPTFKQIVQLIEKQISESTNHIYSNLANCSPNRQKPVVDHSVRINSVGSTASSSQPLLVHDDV
The target in series [3] is Tyrosine-protein kinase SYK (Homo sapiens, UniProt P43405). Put plainly: Inhibition of SYK (unknown origin).
In series [4] the target is Insulin-like growth factor 1 receptor (Homo sapiens, UniProt P08069). Put plainly: Inhibition of IGF1R (unknown origin).
Insulin-like growth factor 1 receptor, sequence (P08069 31-736 limits assumed): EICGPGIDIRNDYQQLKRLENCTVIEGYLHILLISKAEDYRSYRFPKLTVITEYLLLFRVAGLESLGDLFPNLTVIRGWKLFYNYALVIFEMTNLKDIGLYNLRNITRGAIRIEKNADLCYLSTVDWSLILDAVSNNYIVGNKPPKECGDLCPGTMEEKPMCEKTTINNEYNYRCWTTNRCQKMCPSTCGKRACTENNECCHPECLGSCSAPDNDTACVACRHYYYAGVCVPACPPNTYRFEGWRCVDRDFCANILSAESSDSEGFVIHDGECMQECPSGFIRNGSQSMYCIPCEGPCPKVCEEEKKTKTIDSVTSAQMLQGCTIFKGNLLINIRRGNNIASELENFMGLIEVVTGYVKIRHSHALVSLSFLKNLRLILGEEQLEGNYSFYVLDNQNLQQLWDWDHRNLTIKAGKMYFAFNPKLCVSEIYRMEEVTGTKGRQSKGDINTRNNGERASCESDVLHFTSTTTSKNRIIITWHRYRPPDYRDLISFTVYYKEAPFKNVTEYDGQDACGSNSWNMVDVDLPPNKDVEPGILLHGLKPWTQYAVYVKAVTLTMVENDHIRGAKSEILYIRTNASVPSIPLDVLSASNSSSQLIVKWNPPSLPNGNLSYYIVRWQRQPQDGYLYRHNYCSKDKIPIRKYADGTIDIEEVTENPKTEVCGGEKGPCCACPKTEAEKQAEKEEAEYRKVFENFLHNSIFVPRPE
Insulin-like growth factor 1 receptor, sequence (P08069 741-1367 limits assumed): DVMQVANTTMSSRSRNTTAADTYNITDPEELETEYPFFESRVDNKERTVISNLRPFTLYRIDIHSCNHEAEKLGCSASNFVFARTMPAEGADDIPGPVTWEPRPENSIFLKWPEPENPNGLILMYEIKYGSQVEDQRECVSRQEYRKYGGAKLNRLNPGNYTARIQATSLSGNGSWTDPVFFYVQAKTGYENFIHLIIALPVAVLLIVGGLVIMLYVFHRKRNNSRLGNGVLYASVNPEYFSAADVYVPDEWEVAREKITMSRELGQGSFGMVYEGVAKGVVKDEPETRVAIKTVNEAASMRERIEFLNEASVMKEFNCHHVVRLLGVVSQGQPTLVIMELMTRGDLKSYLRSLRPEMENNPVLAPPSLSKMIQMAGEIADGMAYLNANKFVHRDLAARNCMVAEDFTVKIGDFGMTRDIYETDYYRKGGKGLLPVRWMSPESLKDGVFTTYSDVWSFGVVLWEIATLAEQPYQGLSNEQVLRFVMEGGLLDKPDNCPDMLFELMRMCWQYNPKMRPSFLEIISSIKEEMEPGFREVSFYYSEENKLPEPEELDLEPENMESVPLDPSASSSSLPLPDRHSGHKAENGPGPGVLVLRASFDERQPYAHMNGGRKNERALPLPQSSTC
The test system of the next series is Huh-7. Put plainly: cells. As to conditions: Homo sapiens, Huh-7, 72 h.
Series [5] deals with Fibroblast growth factor receptor 2 (Homo sapiens, UniProt P21802). The series can be described thus: Inhibition of FGFR2 (unknown origin).
Series [6] can be described thus: Toxicity in female BALB/c mouse assessed as effect on clinical pathology parameters at 200 to 2000 mg/kg, ig administered as single dose measured after 14 days. The series is classed as organism-based. As to conditions: in vivo, po, 336 h.
For series [7], the target named is Receptor tyrosine-protein kinase erbB-2 (Homo sapiens, UniProt P04626). Put plainly: Inhibition of HER2 (unknown origin).
Series [8] in a line: AUC in Sprague-Dawley rat at 5 mg/kg, ig measured after 5 mins to 24 hrs by LC-MS analysis. The series is classed as ADME, organism-based. The arrangement: dose 5 mg/kg, time 0.083-24 hr, route […]. Particulars: in vivo, po.
Series [9] concerns the target Tyrosine-protein kinase JAK3 (Homo sapiens, UniProt P52333). Put plainly: Inhibition of JAK3 (unknown origin).
Series [10] deals with Tyrosine-protein kinase ZAP-70 (Homo sapiens, UniProt P43403). The series can be described thus: Inhibition of ZAP70 (unknown origin).
Tyrosine-protein kinase ZAP-70, sequence (P43403 whole entry): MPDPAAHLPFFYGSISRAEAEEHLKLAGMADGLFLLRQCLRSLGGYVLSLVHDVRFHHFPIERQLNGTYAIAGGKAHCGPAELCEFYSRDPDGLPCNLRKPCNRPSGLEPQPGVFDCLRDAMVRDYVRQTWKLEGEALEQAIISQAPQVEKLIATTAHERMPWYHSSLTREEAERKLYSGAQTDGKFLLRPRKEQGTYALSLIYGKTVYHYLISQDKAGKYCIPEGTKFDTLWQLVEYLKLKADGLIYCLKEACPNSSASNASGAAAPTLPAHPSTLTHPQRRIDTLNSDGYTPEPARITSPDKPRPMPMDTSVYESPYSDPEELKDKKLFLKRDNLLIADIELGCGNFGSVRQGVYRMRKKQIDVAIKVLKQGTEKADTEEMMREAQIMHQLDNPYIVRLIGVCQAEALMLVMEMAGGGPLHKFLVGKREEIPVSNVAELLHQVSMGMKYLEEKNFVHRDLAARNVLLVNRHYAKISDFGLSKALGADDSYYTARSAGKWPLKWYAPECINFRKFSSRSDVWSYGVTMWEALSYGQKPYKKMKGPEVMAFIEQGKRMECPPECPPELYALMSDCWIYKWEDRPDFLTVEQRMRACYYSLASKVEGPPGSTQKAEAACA

Angiopoietin-1 receptor, sequence (Q02763 whole entry): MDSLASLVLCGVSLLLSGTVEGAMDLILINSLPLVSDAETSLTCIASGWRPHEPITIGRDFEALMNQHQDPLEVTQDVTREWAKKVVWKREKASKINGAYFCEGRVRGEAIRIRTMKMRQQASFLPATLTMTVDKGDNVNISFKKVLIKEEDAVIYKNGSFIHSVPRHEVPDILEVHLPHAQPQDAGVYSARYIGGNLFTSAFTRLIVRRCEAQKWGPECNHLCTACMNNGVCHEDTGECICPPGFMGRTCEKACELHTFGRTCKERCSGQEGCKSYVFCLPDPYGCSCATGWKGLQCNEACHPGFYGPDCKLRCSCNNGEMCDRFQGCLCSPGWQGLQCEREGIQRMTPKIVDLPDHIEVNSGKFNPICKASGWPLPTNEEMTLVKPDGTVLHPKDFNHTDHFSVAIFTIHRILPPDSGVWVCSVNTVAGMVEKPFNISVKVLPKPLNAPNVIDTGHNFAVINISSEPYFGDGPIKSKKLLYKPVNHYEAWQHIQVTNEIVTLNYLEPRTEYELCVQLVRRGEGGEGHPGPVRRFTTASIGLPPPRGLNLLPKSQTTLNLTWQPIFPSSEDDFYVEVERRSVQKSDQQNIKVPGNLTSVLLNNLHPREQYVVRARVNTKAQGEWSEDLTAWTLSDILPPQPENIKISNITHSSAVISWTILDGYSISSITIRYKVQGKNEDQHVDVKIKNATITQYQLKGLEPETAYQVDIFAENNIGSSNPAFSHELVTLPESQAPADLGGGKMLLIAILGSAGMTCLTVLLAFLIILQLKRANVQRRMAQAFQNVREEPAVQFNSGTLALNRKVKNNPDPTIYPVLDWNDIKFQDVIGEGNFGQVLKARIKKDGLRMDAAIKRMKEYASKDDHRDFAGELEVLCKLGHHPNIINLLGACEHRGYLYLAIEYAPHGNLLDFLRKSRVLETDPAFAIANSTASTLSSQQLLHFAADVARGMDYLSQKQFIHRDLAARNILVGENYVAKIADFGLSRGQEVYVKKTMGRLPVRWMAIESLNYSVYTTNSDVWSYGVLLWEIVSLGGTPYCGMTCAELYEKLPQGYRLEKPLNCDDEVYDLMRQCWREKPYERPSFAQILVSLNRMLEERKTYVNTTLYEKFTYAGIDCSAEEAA

As for `COC[C@@H](C)Nc1cc(NC(=O)N2CCCc3cc(CN4CCCCOC4=O)c(C=O)nc32)ncc1C#N`, the negative-log IC50 (pIC50) (against Angiopoietin-1 receptor; in series [1]; against Ephrin type-A receptor 1; on Insulin receptor; in series [2]; in [3]) was less than 5.00 throughout. In addition, the negative logarithm of the IC50 (pIC50) in series [4] is less than 5.00; in the series with Huh-7, 8.60; in [5], less than 5.00; in [7] it was less than 5.00; in series [9], less than 5.00; in [10], less than 5.00. Also, in the series on Hep 3B2, the inhibition in vivo at 30 mg/kg was found to be 165%. The Activity result in series [6] is “Non-Toxic”. Moreover, the area under the curve (AUC) in series [8] was 9460 ng·h/mL.

What is called pIC50 is the IC50 on a negative log10 scale, so that one unit is a factor of ten. Lower therefore signals a high IC50. Broadly, the AUC is concentration integrated over time.
